Results on six molecules are retold here after ChEMBL document CHEMBL4813937, “Jatrophane Diterpenoids from Euphorbia peplus as Multidrug Resistance Modulators with Inhibitory Effects on the ATR-Chk-1 Pathway” (J Nat Prod, 2021).

Active and inactive are the calls of the source. No cut-off for these calls is given here.

Test system in the first experiment: not listed separately
The experiment in a line: Inhibition of ATR/Chk1 pathway in human A549 cells assessed as suppression of […]-induced phosphorylation of Chk1 on serine-345 residue at 20 uM incubated for 12 hrs by Western blotting analysis. Format: cell-based.
For `C=C1[C@H](OC(C)=O)CC(=O)C(C)(C)/C=C/[C@H](C)C(=O)[C@@]2(O)C[C@@](C)(O)[C@H](OC(=O)c3ccccc3)[C@@H]2[C@H]1OC(C)=O`, the inhibition result is “Active”. On the same count and under the same terms, for `C=C1[C@H](OC(C)=O)[C@H]2[C@@H](OC(=O)c3ccccc3)[C@](C)(O)C[C@]2(O)C(=O)[C@@H](C)/C=C/C(C)(C)C(=O)[C@H](OC(C)=O)[C@H]1OC(C)=O` the value was “Active”. As to `C=C1[C@H](OC(C)=O)[C@@H](OC(C)=O)[C@@H](OC(C)=O)C(C)(C)/C=C/[C@H](C)[C@H](OC(C)=O)[C@@]2(O)C[C@@](C)(OC(C)=O)[C@H](OC(=O)c3ccccc3)[C@@H]2[C@H]1OC(C)=O`, the inhibition entry was “Active”. Still for that read-out and setting: the result for `C=C1[C@H](OC(C)=O)[C@H]2[C@@H](OC(=O)c3ccccc3)[C@](C)(OC(C)=O)C[C@]2(O)C(=O)[C@@H](C)/C=C/C(C)(C)C(=O)[C@H](OC(C)=O)[C@H]1OC(C)=O` reads “Active”; that for `C=C1[C@H](OC(=O)C(C)C)[C@@H](OC(C)=O)[C@@H](OC(C)=O)C(C)(C)/C=C/[C@H](C)[C@H](OC(C)=O)[C@@]2(O)C[C@@](C)(OC(C)=O)[C@H](OC(=O)c3ccccc3)[C@@H]2[C@H]1OC(C)=O`, “Active”.

The subject of another experiment is A549. The experiment in a line: Induction of apoptosis in human A549 cells assessed as increase in PARP cleavage at 25 uM incubated for 48 hrs by Western blotting analysis. The experiment is classed as functional, cell-based.
On to `CC[C@@]1(O)C(=O)OCc2c1cc1n(c2=O)Cc2cc3ccccc3nc2-1`, for which the outcome was inactive.
